Where a name gives a salt, the structure may show the parent alone. Read-outs that look alike come from different tables or passages of the source.
Tests used:
[1] = system: carrageenin edema; experiment: carrageenin edema test in rats (antiinflammatory activity); type: in vivo; settings: Rattus norvegicus, po, read-out: % Decrease of the edema; for inhibition in vivo at 50 mg/kg: dose 50 mg/kg p.o. in rats; for inhibition in vivo at 200 mg/kg: dose 200 mg/kg p.o. in rats; for inhibition in vivo at 100 mg/kg: dose 100 mg/kg p.o. in rats
Text: The anti-inflamatory activity of the indole derivatives is evidenced by means of the carrageenin edema test in rats. In representative experiments compounds of formula I provoked a substantial decrease of the induced edema at dosage levels from about one fifth to about one tenth of their respective LD50 values. The following table reports the results of the experiments:
The following table reports the percent inhibitory effect of some representative compounds of the formula II in the carrageenin edema test.

[2] = LD50 p.o. in rats (acute toxicity); settings: rat, in vivo, po
[3] = system: pain threshold of inflammed foot of the rat; experiment: analgesic effect on pain threshold of inflamed foot of the rat (Randall and Selitto); type: in vivo; settings: vs acetylsalicylic acid
[4] = compounds of the examples (formula I)

COc1ccc(N(C)NC(=O)C(C)C)cc1 [1-(p-Methoxyphenyl)-1-methyl-2-isobutyrylhydrazine]
inhibition in vivo at 50 mg/kg ([1]; hydrazines of formula II): 30%
LD50 ([2]; hydrazines of formula II): 500 mg/kg

CN(NC(=O)C1CCCCC1)c1ccccc1 [1-Phenyl-1-methyl-2-cyclohexanoyl hydrazine]
inhibition in vivo at 50 mg/kg ([1]; hydrazines of formula II): 37%
LD50 ([2]; hydrazines of formula II): 500 mg/kg

CN1C(=N)C2(CCCCC2)c2ccccc21 [Example 13, 2'-imino-1'-methyl-spyro(cyclohexane-1,3'-indoline)hydrochloride]
analgesic activity relative to acetylsalicylic acid (times as active) [3]: about 25 times
inhibition in vivo at 8 mg/kg ([1]; compounds of the examples (formula I), dose 8 mg/kg p.o. in rats): 45%
inhibition in vivo at 20 mg/kg ([1]; compounds of the examples (formula I), dose 20 mg/kg p.o. in rats): 60%
LD50 [2, 4]: 100 mg/kg

CC(C)C(=O)NN(C)c1ccccc1 [1-Phenyl-1-methyl-2-isobutyrylhydrazine]
inhibition in vivo at 50 mg/kg ([1]; hydrazines of formula II): 36%
LD50 ([2]; hydrazines of formula II): 500 mg/kg

CC(=O)NN(C)c1ccccc1 [1-Phenyl-1-methyl-2-acetylhydrazine]
inhibition in vivo at 50 mg/kg ([1]; hydrazines of formula II): 57%
LD50 ([2]; hydrazines of formula II): 500 mg/kg

CN(NC(=O)C1CCCC1)c1ccccc1 [1-Phenyl-1-methyl-2-cyclopentanoylhydrazine]
inhibition in vivo at 50 mg/kg ([1]; hydrazines of formula II): 37%
LD50 ([2]; hydrazines of formula II): 500 mg/kg

Cn1c(NC(=O)Nc2ccccc2)c(-c2ccc(Cl)cc2)c2ccccc21 [Example 34, 3-(p-Chlorophenyl)-1-methyl-2-phenylureidoindole]
inhibition in vivo at 200 mg/kg [1, 4]: 33%
LD50 [2, 4]: > 1000 mg/kg

CCC(=O)NN(C)c1ccccc1 [1-Phenyl-1-methyl-2-propionylhydrazine]
inhibition in vivo at 50 mg/kg ([1]; hydrazines of formula II): 30%
LD50 ([2]; hydrazines of formula II): 500 mg/kg

CN1C(=NC(=O)c2ccccc2)C(C)(C)c2ccccc21 [Example 28, 2-Benzoylimino-1,3,3-trimethylindoline]
inhibition in vivo at 100 mg/kg [1, 4]: 35%
inhibition in vivo at 200 mg/kg [1, 4]: 45%
LD50 [2, 4]: > 1000 mg/kg

CCC(C)C(=O)NN(C)c1ccccc1 (stereo not drawn) [1-Phenyl-1-methyl-2-(2-methylbutyryl)-hydrazine]
inhibition in vivo at 100 mg/kg ([1]; hydrazines of formula II): 40%
LD50 ([2]; hydrazines of formula II): > 1000 mg/kg

CN(NC(=O)C1CC1)c1ccccc1 [1-Phenyl-1-methyl-2-cyclopropanoylhydrazine]
inhibition in vivo at 50 mg/kg ([1]; hydrazines of formula II): 35%
LD50 ([2]; hydrazines of formula II): 500 mg/kg

CN(NC(=O)CCCN1C(=O)c2ccccc2C1=O)c1ccccc1 [1-Phenyl-1-methyl-1-( -phthalimido-butyryl)-hydrazine]
inhibition in vivo at 200 mg/kg ([1]; hydrazines of formula II): 28%
LD50 ([2]; hydrazines of formula II): > 1000 mg/kg

COc1cccc(-c2c(N)n(C)c3ccccc23)c1 [Example 9, 2-amino-3-(m-anisyl)-1-methylindole hydrochloride]
inhibition in vivo at 100 mg/kg [1, 4]: 30%
inhibition in vivo at 200 mg/kg [1, 4]: 41%
LD50 [2, 4]: > 1000 mg/kg

— patent publication US3984563A, “Antiinflammatory 2-imino-indolines and their pharmaceutical compositions” (Gruppo Lepetit S.p.A., priority 1973, dated 1976)
